Measurements as given in patent US7326403B2, “Radioactive iodine-labeled compound” (FUJIFILM Corporation, priority 2003, dated 2008).

How the values were obtained:
[1] = test system: LS180 (human colon cancer cell); assay: Uptake experiment in tumor cells (LS180); assay type: cell-based; details: for uptake, percent dose converted to 100,000 cells: 0.5 μCi, mean ± S.D.
Experimental: (§1) (i) LS180 (Human Colon Cancer Cell), SHIN-III (Human Ovary Cancer Cell) and U87MG (Glioma)
(§2) A commercially available medium, RPMI1640 (Nissui, 5.1 g), was dissolved in extra pure water (500 ml), autoclaved, and added with L-glutamine (0.15 g), Meylon (7% aqueous sodium hydrogencarbonate, a pharmaceutical preparation for injection, 14 ml) and FBS (55 ml) in a clean bench to prepare a medium. Cells were cultured in this medium.
(§3) Cells cryopreserved in a medium containing 10% DMSO were thawed, transferred to a 15-ml Falcon tube, and added with PBS to a volume of 5 ml. The mixture was centrifuged at 1300 rpm for 5 minutes. The supernatant was removed by suction, and the precipitates were suspended in PBS (5 ml). The suspension was centrifuged again at 1300 rpm for 5 minutes. The supernatant was removed by suction, and the precipitates were suspended in a medium (10 ml), inoculated in a 10-cm dish and left standing at 37° C. in a 5% CO2 incubator.
(§4) After 3 days, when the cells were proliferated to 80 to 90% of the 10-cm dish, the cells were subcultured in a 15-cm dish.
(§5) The 10-cm dish was taken out from the incubator, and the supernatant was removed by suction. The cells were washed three times with PBS, added with trypsin-EDTA (0.05% trypsin, 0.53 mM EDTA tetrasodium salt, 1 ml) and PBS (1 ml) and left standing in a CO2 incubator for 10 minutes. The dish was taken out from the incubator, and separation of the cells was observed. Then, the cells were transferred to a 15-ml Falcon tube. The cells were added with PBS to a volume of 5 ml and centrifuged at 1300 rpm for 5 minutes, and the supernatant was removed by suction. The precipitates were suspended in PBS (5 ml) and centrifuged at 1300 rpm for 5 minutes, and the supernatant was removed by suction. The precipitates were suspended in a medium (8 ml), and inoculated in a volume of 4 ml each to two of 15-cm dishes, to which the medium (16 ml) was added beforehand, and left standing at 37° C. in a 5% CO2 incubator.
(§6) Two days before the uptake experiment, the cells were inoculated on a 24-well plate ([…] of cell-suspended medium/well, 5 wells/plate per one type of cell). […] For the 4 wells to which the compound of the present invention was added, the cells were separated with 0.2 N NaOH and subjected to measurement of radioactivity. For the remaining 1 well, trypsin-EDTA was added to separate the cells, and the number of cells was counted by using a blood cell counter. Percent doses, which were converted to values for 100,000 cells based on the number of cells and radioactivity, and ratios relative to the normal cells (NIH3T3) were calculated. […]

[2] = test system: SHIN-III (human ovary cancer cell); assay: Uptake experiment in tumor cells (SHIN-III); assay type: cell-based; details: for uptake, percent dose converted to 100,000 cells: SHIN-III, 0.5 μCi, mean ± S.D.
Experimental: as §1, §2, §3, §4, §5, §6

[3] = test system: U87MG (glioma); assay: Uptake experiment in tumor cells (U87MG); assay type: cell-based; details: for uptake, percent dose converted to 100,000 cells: U87MG, 0.5 μCi, mean ± S.D.
Experimental: as §1, §2, §3, §4, §5, §6

[4] = test system: NIH3T3 (fibroblast, control); assay: Uptake experiment in normal control cells (NIH3T3); assay type: cell-based; details: 0.5 μCi, mean ± S.D.
Experimental: (ii) NIH3T3 (Fibroblast, Control)
A commercially available DMEM medium (Nissui) was dissolved in extra pure water (500 ml), autoclaved, and added with L-glutamine (0.15 g), Meylon (7% aqueous sodium hydrogencarbonate, a pharmaceutical preparation for injection, 14 ml) and FBS (55 ml) in a clean bench to prepare a medium. Cells were cultured in this medium.
as §3
After 1 week, when the cells were proliferated to 80 to 90% of the 10-cm dish, the cells were subcultured in a 15-cm dish.
The 10-cm dish was taken out from the incubator, and the supernatant was removed by suction. The cells were washed three times with PBS, added with trypsin-EDTA (0.05% trypsin, 0.53 mM EDTA tetrasodium salt, 1 ml) and PBS (1 ml) and left standing in a CO2 incubator for 10 minutes. The dish was taken out from the incubator, and separation of the cells was observed. Then, the cells were transferred to a 15-ml Falcon tube. […]
as §6

[5] = test system: SHIN-III human ovary cancer cells (tumor tissue vs muscle tissue); assay: Distribution experiment in vivo, nude mice transplanted with SHIN-III; details: 18.5 kBq via caudal vein, 5, 10 and 30 minutes, FIG. 1
Experimental: 1.0×10^6 cells of SHIN-III human ovary cancer cells were subcutaneously inoculated in the femoral region of nude mice (male, 5-week old). […] After 5 minutes, 10 minutes and 30 minutes, the mice were sacrificed, and the weight and radioactivity of each organ were measured.

SMILES: CCn1c(=O)/c(=C2\Sc3ccccc3N2Cc2ccc([125I])cc2)s/c1=C\c1cccc[n+]1CC [the compound of the present invention]
- uptake, percent dose converted to 100,000 cells ([1]; LS180, after 30 minutes): 3.37 ± 0.31 % dose/100000 cells
- uptake, percent dose converted to 100,000 cells ([1]; LS180, after 1 hour): 5.33 ± 0.43 % dose/100000 cells
- uptake, percent dose converted to 100,000 cells ([1]; LS180, after 3 hours): 10.2 ± 0.97 % dose/100000 cells
- uptake ratio relative to the normal cells (NIH3T3) ([1]; LS180 vs NIH3T3): about three
- uptake ratio relative to the normal cells (NIH3T3) ([2]; SHIN-III vs NIH3T3): about seven
- uptake, percent dose converted to 100,000 cells ([2]; after 30 minutes): 6.26 ± 0.73 % dose/100000 cells
- uptake, percent dose converted to 100,000 cells ([2]; after 1 hour): 11.7 ± 1.16 % dose/100000 cells
- uptake, percent dose converted to 100,000 cells ([2]; after 3 hours): 25.2 ± 2.42 % dose/100000 cells
- uptake ratio relative to the normal cells (NIH3T3) ([3]; U87MG vs NIH3T3): about 7 times
- uptake, percent dose converted to 100,000 cells ([3]; after 30 minutes): 3.19 ± 1.86 % dose/100000 cells
- uptake, percent dose converted to 100,000 cells ([3]; after 1 hour): 3.07 ± 0.09 % dose/100000 cells
- uptake, percent dose converted to 100,000 cells ([3]; after 3 hours): 5.32 ± 0.70 % dose/100000 cells
- uptake, percent dose converted to 100,000 cells ([4]; after 30 minutes): 1.40 ± 0.03 % dose/100000 cells
- uptake, percent dose converted to 100,000 cells ([4]; after 1 hour): 2.12 ± 0.14 % dose/100000 cells
- uptake, percent dose converted to 100,000 cells ([4]; after 3 hours): 3.34 ± 0.18 % dose/100000 cells
- accumulation in the tumor tissue and muscle tissue [5]: accumulate in a higher concentration in the tumor tissue than in the muscle
